Test results taken from ChEMBL document CHEMBL1201862, “PubChem BioAssay data set” (2004).
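1) Cells in 96-well plates. 2) Compound, 48 h, 5 concentrations. 3) Linear interpolation between surrounding doses. 4) Unreached endpoint = highest concentration. At the GI50, growth is halved.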 Active and inactive are the calls of the source. Rule as the data show it: active = GI50 up to about 1.1 µM and inactive = higher.

Key:
Test in all cases: DTP human tumour cell line panel, 48 h
786-0 = system: 786-0
A498 = system: A498
A549 = system: A549
ACHN = system: ACHN
BT-549 = system: BT-549
CAKI-1 = system: CAKI-1
CCRF-CEM = system: CCRF-CEM
COLO 205 = system: COLO 205
DU-145 = system: DU-145
EKVX = system: EKVX
HCC 2998 = system: HCC 2998
HCT-116 = system: HCT-116
HCT-15 = system: HCT-15
HL-60 = system: HL-60
HOP-62 = system: HOP-62
HOP-92 = system: HOP-92
HT-29 = system: HT-29
Hs-578T = system: Hs-578T
IGROV-1 = system: IGROV-1
K562 = system: K562
KM12 = system: KM12
LOX IMVI = system: LOX IMVI
M14 = system: M14
MCF7 = system: MCF7
MDA-MB-231 = system: MDA-MB-231
MDA-MB-435 = system: MDA-MB-435
MDA-N = system: MDA-N
MOLT-4 = system: MOLT-4
Malme-3M = system: Malme-3M
NCI-H226 = system: NCI-H226
NCI-H23 = system: NCI-H23
NCI-H460 = system: NCI-H460
NCI-H522 = system: NCI-H522
NCI/ADR-RES = system: NCI/ADR-RES
OVCAR-3 = system: OVCAR-3
OVCAR-4 = system: OVCAR-4
OVCAR-5 = system: OVCAR-5
OVCAR-8 = system: OVCAR-8
PC-3 = system: PC-3
RPMI-8226 = system: RPMI-8226
RXF 393 = system: RXF 393
SF-295 = system: SF-295
SF-539 = system: SF-539
SK-MEL-28 = system: SK-MEL-28
SK-MEL-2 = system: SK-MEL-2
SK-MEL-5 = system: SK-MEL-5
SK-OV-3 = system: SK-OV-3
SN12C = system: SN12C
SNB-19 = system: SNB-19
SNB-75 = system: SNB-75
SR = system: SR
SW-620 = system: SW-620
T47D = system: T47D
TK-10 = system: TK-10
U-251 = system: U-251
UACC-257 = system: UACC-257
UACC-62 = system: UACC-62
UO-31 = system: UO-31
SF-268 = system: SF-268

Question: Which GI50 (786-0) does the source give for `O=[N+]([O-])c1ccc2c(c1)nc(Cc1ccc(Cl)cc1)n2C[C@@H]1CCCN2CCCCC12` (stereo partly specified) here?
Answer: 11.8 µM (inactive)

Question: What about the GI50 (A498) of the same compound?
Answer: 6.05 µM (inactive)

Question: What about the GI50 (A549) of the same compound?
Answer: 19.2 µM (inactive)

Question: And the GI50 (ACHN)?
Answer: 13.4 µM (inactive)

Question: And the GI50 (BT-549)?
Answer: 13 µM (inactive)

Question: And the GI50 (CAKI-1)?
Answer: 15.2 µM (inactive)

Question: What about the GI50 (CCRF-CEM) of the same compound?
Answer: 11.8 µM (inactive)

Question: And the GI50 (COLO 205)?
Answer: 10.4 µM (inactive)

Question: And the GI50 (DU-145)?
Answer: 17.7 µM (inactive)

Question: And the GI50 (EKVX)?
Answer: 8.39 µM (inactive)

Question: What about the GI50 (HCC 2998) of the same compound?
Answer: 7.64 µM (inactive)

Question: And the GI50 (HCT-116)?
Answer: 10.5 µM (inactive)

Question: And the GI50 (HCT-15)?
Answer: 16 µM

Question: And the GI50 (HL-60)?
Answer: 28.9 µM (inactive)

Question: What about the GI50 (HOP-62) of the same compound?
Answer: 20.5 µM (inactive)

Question: What about the GI50 (HOP-92) of the same compound?
Answer: 6.47 µM (inactive)

Question: And the GI50 (HT-29)?
Answer: 8.59 µM (inactive)

Question: What about the GI50 (Hs-578T) of the same compound?
Answer: 13.5 µM (inactive)

Question: What about the GI50 (IGROV-1) of the same compound?
Answer: 9.84 µM (inactive)

Question: And the GI50 (K562)?
Answer: 15 µM (inactive)

Question: And the GI50 (KM12)?
Answer: 13.5 µM (inactive)

Question: What about the GI50 (LOX IMVI) of the same compound?
Answer: 13.7 µM (inactive)

Question: And the GI50 (M14)?
Answer: 9.79 µM (inactive)

Question: And the GI50 (MCF7)?
Answer: 0.54 µM (active)

Question: And the GI50 (MDA-MB-231)?
Answer: 16.5 µM (inactive)

Question: What about the GI50 (MDA-MB-435) of the same compound?
Answer: 14.3 µM (inactive)

Question: And the GI50 (MDA-N)?
Answer: 12.9 µM (inactive)

Question: And the GI50 (MOLT-4)?
Answer: 10.9 µM (inactive)

Question: What about the GI50 (Malme-3M) of the same compound?
Answer: 9.16 µM (inactive)

Question: What about the GI50 (NCI-H226) of the same compound?
Answer: 16.6 µM (inactive)

Question: And the GI50 (NCI-H23)?
Answer: 14.9 µM (inactive)

Question: What about the GI50 (NCI-H460) of the same compound?
Answer: 14 µM (inactive)

Question: And the GI50 (NCI-H522)?
Answer: 12.3 µM (inactive)

Question: What about the GI50 (NCI/ADR-RES) of the same compound?
Answer: 13.9 µM (inactive)

Question: What about the GI50 (OVCAR-3) of the same compound?
Answer: 15.5 µM (inactive)

Question: What about the GI50 (OVCAR-4) of the same compound?
Answer: 9.86 µM (inactive)

Question: What about the GI50 (OVCAR-5) of the same compound?
Answer: 15.5 µM (inactive)

Question: And the GI50 (OVCAR-8)?
Answer: 15.1 µM (inactive)

Question: What about the GI50 (PC-3) of the same compound?
Answer: 20.2 µM (inactive)

Question: And the GI50 (RPMI-8226)?
Answer: 26.3 µM (inactive)

Question: And the GI50 (RXF 393)?
Answer: 11.6 µM (inactive)

Question: And the GI50 (SF-295)?
Answer: 15.3 µM (inactive)

Question: What about the GI50 (SF-539) of the same compound?
Answer: 18.4 µM (inactive)

Question: What about the GI50 (SK-MEL-28) of the same compound?
Answer: 14.6 µM (inactive)

Question: And the GI50 (SK-MEL-2)?
Answer: 15.8 µM (inactive)

Question: What about the GI50 (SK-MEL-5) of the same compound?
Answer: 14.8 µM (inactive)

Question: And the GI50 (SK-OV-3)?
Answer: 18.9 µM (inactive)

Question: What about the GI50 (SN12C) of the same compound?
Answer: 13.6 µM (inactive)

Question: What about the GI50 (SNB-19) of the same compound?
Answer: 22.8 µM (inactive)

Question: And the GI50 (SNB-75)?
Answer: 15 µM (inactive)

Question: And the GI50 (SR)?
Answer: 22.7 µM (inactive)

Question: What about the GI50 (SW-620) of the same compound?
Answer: 20.8 µM (inactive)

Question: What about the GI50 (T47D) of the same compound?
Answer: 16.7 µM (inactive)

Question: What about the GI50 (TK-10) of the same compound?
Answer: 17.6 µM (inactive)

Question: What about the GI50 (U-251) of the same compound?
Answer: 18.6 µM (inactive)

Question: And the GI50 (UACC-257)?
Answer: 15.3 µM (inactive)

Question: What about the GI50 (UACC-62) of the same compound?
Answer: 15.2 µM (inactive)

Question: And the GI50 (UO-31)?
Answer: 1.58 µM (inactive)

Question: Which GI50 (786-0) does the source give for `CCCNc1[nH]c(C(C)=O)c(N)c1C(=S)Nc1ccccc1` here?
Answer: 26.4 µM (inactive)

Question: And the GI50 (A498)?
Answer: 27.4 µM (inactive)

Question: And the GI50 (A549)?
Answer: 33.3 µM (inactive)

Question: What about the GI50 (ACHN) of the same compound?
Answer: 40.8 µM (inactive)

Question: What about the GI50 (BT-549) of the same compound?
Answer: 24.2 µM (inactive)

Question: And the GI50 (CAKI-1)?
Answer: 46.8 µM (inactive)

Question: What about the GI50 (CCRF-CEM) of the same compound?
Answer: 46.5 µM (inactive)

Question: And the GI50 (COLO 205)?
Answer: 31.6 µM (inactive)

Question: What about the GI50 (DU-145) of the same compound?
Answer: 54.7 µM (inactive)

Question: What about the GI50 (EKVX) of the same compound?
Answer: 35.2 µM (inactive)

Question: What about the GI50 (HCC 2998) of the same compound?
Answer: > 100 µM (inactive)

Question: And the GI50 (HCT-116)?
Answer: 34.8 µM (inactive)

Question: And the GI50 (HCT-15)?
Answer: 31.8 µM

Question: And the GI50 (HL-60)?
Answer: 37.7 µM (inactive)

Question: What about the GI50 (HOP-62) of the same compound?
Answer: 42 µM (inactive)

Question: And the GI50 (HOP-92)?
Answer: 34 µM (inactive)

Question: And the GI50 (HT-29)?
Answer: 20 µM (inactive)

Question: What about the GI50 (Hs-578T) of the same compound?
Answer: 39.3 µM (inactive)

Question: What about the GI50 (IGROV-1) of the same compound?
Answer: 0.507 µM (active)

Question: What about the GI50 (K562) of the same compound?
Answer: 43.4 µM (inactive)

Question: What about the GI50 (KM12) of the same compound?
Answer: 34 µM (inactive)

Question: And the GI50 (LOX IMVI)?
Answer: 23.3 µM (inactive)

Question: What about the GI50 (M14) of the same compound?
Answer: 19.4 µM (inactive)

Question: What about the GI50 (MCF7) of the same compound?
Answer: 19.2 µM (inactive)

Question: What about the GI50 (MDA-MB-231) of the same compound?
Answer: 36.6 µM (inactive)

Question: And the GI50 (MDA-MB-435)?
Answer: 21 µM (inactive)

Question: And the GI50 (MDA-N)?
Answer: 41.4 µM (inactive)

Question: And the GI50 (MOLT-4)?
Answer: 69.2 µM (inactive)

Question: And the GI50 (Malme-3M)?
Answer: 28 µM (inactive)

Question: What about the GI50 (NCI-H226) of the same compound?
Answer: 21.7 µM (inactive)

Question: And the GI50 (NCI-H23)?
Answer: 41 µM (inactive)

Question: And the GI50 (NCI-H460)?
Answer: 33.9 µM (inactive)

Question: And the GI50 (NCI-H522)?
Answer: 4.15 µM (inactive)

Question: And the GI50 (NCI/ADR-RES)?
Answer: 28.7 µM (inactive)

Question: What about the GI50 (OVCAR-3) of the same compound?
Answer: 42.4 µM (inactive)

Question: And the GI50 (OVCAR-4)?
Answer: 23.1 µM (inactive)

Question: And the GI50 (OVCAR-5)?
Answer: 68.9 µM (inactive)

Question: And the GI50 (OVCAR-8)?
Answer: 27.7 µM (inactive)

Question: What about the GI50 (PC-3) of the same compound?
Answer: > 100 µM (inactive)

Question: What about the GI50 (RXF 393) of the same compound?
Answer: 20.4 µM (inactive)

Question: And the GI50 (SF-268)?
Answer: 23.3 µM (inactive)

Question: And the GI50 (SF-295)?
Answer: 43.3 µM (inactive)

Question: What about the GI50 (SF-539) of the same compound?
Answer: 10.8 µM (inactive)

Question: What about the GI50 (SK-MEL-28) of the same compound?
Answer: 24.7 µM (inactive)

Question: What about the GI50 (SK-MEL-2) of the same compound?
Answer: 9.2 µM (inactive)

Question: What about the GI50 (SK-MEL-5) of the same compound?
Answer: 22.7 µM (inactive)

Question: And the GI50 (SK-OV-3)?
Answer: 45.5 µM (inactive)

Question: What about the GI50 (SN12C) of the same compound?
Answer: 32.8 µM (inactive)

Question: And the GI50 (SNB-19)?
Answer: 38.4 µM (inactive)

Question: What about the GI50 (SNB-75) of the same compound?
Answer: 37 µM (inactive)

Question: What about the GI50 (SR) of the same compound?
Answer: 17.2 µM (inactive)

Question: What about the GI50 (SW-620) of the same compound?
Answer: > 100 µM (inactive)

Question: What about the GI50 (T47D) of the same compound?
Answer: 47.1 µM (inactive)

Question: What about the GI50 (TK-10) of the same compound?
Answer: 39.1 µM (inactive)

Question: And the GI50 (U-251)?
Answer: 31.7 µM (inactive)

Question: And the GI50 (UACC-257)?
Answer: 30.1 µM (inactive)

Question: And the GI50 (UACC-62)?
Answer: 17.9 µM (inactive)

Question: What about the GI50 (UO-31) of the same compound?
Answer: 0.782 µM (active)
